Assay results published in the NIST ThermoML archive (doi:10.1016/j.jct.2016.09.036).
± gives the expanded uncertainty stated by the source.

Assays:
[1] = Molar enthalpy of transition or fusion; conditions: Crystal 1; DSC
[2] = for mass density: 298.15 K, 101.33 kPa

## O=C(NC[C@H]1CN(c2ccc(N3CCOCC3=O)cc2)C(=O)O1)c1ccc(Cl)s1 [Rivaroxaban]
[1]
  Molar enthalpy of transition or fusion: 11.2 ± 0.502 kcal/mol
[2]; Crystal 1, Pycnometric method
  mass density: 1517.1 ± 2.1 kg/m3
[2]; Crystal 1, X-ray diffraction
  mass density: 1516.7 ± 7.4 kg/m3
[2]; Metastable crystal, Pycnometric method
  mass density: 1355.3 ± 2.1 kg/m3
[2]; Metastable crystal, X-ray diffraction
  mass density: 1362.9 ± 25 kg/m3
[2]; Crystal 1, DSC
  Triple point temperature: 501.41 ± 7.8 K
